In US20250387388A1, “COMPOUND AS TRK INHIBITOR AND/OR RET INHIBITOR AND USE THEREOF” (Medinno Pharmaceutical Technology (Zhuhai) Co., Ltd., priority 2022, published 2025):
Like-named read-outs stand apart in the source and are kept apart here. One block for each molecule: values may come before it.

Experiments:
TRKB = TRKB (Homo sapiens (Human), UniProt Q16620); test: Inhibitory activity on TRKB (ADP-Glo Kinase Assay)
TRKA [1] = biological target: T1, TRKA (Homo sapiens (Human), UniProt P04629); test: Inhibitory activity on TRKA (ADP-Glo Kinase Assay)
T1 sequence (P04629 33-796 limits assumed): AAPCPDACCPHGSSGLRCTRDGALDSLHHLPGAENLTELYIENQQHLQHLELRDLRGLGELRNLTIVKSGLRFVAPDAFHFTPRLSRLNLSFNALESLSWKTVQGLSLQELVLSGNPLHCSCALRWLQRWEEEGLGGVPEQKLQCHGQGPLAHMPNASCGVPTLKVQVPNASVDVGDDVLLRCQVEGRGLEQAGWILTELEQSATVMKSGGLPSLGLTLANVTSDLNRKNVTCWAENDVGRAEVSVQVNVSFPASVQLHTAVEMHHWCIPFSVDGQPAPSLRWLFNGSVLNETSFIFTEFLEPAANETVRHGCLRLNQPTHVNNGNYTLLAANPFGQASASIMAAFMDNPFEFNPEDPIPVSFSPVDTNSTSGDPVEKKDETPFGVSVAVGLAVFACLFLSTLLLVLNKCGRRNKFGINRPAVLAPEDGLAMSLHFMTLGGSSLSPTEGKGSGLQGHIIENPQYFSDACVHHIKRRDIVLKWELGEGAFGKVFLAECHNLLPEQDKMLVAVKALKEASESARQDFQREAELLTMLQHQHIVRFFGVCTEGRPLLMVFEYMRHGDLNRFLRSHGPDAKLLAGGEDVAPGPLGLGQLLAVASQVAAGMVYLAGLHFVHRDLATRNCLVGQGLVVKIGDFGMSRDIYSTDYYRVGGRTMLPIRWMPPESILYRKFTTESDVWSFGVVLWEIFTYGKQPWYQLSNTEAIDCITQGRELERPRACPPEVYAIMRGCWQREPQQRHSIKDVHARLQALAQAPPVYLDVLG

RET = RET (Homo sapiens (Human), UniProt P07949); test: Inhibitory activity on RET kinase (HTRF KinEASE-TK); assay type: biochemical; settings: ATP 16 μM
Chain of RET (P07949 29-1114): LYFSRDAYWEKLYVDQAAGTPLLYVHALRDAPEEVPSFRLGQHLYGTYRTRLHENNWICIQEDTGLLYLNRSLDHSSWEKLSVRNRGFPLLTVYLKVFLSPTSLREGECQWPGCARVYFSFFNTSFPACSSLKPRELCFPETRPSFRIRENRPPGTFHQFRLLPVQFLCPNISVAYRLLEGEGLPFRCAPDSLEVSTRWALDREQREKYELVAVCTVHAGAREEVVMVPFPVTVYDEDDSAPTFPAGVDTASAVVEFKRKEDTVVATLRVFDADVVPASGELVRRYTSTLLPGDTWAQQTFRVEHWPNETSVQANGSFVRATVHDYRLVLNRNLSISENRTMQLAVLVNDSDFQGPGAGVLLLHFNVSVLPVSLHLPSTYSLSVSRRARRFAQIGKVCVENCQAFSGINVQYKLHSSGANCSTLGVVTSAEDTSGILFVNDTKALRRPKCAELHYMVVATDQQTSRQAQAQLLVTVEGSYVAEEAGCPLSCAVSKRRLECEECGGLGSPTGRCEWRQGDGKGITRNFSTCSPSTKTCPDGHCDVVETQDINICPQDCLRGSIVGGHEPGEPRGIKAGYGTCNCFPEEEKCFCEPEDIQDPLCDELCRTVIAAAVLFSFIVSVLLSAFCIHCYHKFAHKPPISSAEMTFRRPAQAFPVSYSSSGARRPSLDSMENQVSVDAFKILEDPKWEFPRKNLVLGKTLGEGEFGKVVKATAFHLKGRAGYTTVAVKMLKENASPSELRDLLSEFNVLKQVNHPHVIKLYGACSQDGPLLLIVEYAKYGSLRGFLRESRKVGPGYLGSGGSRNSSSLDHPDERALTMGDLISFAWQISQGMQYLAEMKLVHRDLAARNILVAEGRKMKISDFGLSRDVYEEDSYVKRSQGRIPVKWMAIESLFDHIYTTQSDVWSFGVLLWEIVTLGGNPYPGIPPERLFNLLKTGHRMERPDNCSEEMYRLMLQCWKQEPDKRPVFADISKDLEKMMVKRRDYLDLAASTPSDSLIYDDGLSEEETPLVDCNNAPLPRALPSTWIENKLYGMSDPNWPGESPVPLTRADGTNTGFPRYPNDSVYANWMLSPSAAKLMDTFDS
Excerpt: 3) Formulate 2.5× kinase with 1× kinase reaction buffer.

TRKC = TRKC (Homo sapiens (Human), UniProt Q16288); test: Inhibitory activity on TRKC (ADP-Glo Kinase Assay)
Chain of TRKC (Q16288 32-839): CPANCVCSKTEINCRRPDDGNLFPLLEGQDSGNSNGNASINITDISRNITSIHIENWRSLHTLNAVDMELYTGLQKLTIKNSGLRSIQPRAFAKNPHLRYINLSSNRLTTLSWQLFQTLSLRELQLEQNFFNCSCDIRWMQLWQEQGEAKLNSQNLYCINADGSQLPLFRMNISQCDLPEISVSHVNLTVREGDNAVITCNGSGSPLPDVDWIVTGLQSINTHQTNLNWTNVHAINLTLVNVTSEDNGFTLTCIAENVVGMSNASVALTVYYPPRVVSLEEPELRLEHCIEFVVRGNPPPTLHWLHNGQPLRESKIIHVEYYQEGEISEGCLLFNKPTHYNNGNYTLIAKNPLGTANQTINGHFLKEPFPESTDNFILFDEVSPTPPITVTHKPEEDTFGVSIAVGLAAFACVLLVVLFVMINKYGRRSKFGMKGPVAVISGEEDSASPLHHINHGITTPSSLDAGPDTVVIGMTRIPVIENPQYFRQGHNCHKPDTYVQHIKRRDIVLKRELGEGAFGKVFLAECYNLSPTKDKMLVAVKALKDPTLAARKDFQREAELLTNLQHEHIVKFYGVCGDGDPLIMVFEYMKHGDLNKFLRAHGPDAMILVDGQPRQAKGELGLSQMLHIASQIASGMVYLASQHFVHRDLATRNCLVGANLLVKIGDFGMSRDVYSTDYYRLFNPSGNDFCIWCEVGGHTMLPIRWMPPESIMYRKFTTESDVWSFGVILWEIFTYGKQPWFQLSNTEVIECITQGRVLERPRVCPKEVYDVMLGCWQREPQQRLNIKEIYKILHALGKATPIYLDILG

JAK3 = JAK3 (Homo sapiens (Human), UniProt P52333); settings: reported; cited from earlier work
Chain of JAK3 (P52333 whole entry, species assumed): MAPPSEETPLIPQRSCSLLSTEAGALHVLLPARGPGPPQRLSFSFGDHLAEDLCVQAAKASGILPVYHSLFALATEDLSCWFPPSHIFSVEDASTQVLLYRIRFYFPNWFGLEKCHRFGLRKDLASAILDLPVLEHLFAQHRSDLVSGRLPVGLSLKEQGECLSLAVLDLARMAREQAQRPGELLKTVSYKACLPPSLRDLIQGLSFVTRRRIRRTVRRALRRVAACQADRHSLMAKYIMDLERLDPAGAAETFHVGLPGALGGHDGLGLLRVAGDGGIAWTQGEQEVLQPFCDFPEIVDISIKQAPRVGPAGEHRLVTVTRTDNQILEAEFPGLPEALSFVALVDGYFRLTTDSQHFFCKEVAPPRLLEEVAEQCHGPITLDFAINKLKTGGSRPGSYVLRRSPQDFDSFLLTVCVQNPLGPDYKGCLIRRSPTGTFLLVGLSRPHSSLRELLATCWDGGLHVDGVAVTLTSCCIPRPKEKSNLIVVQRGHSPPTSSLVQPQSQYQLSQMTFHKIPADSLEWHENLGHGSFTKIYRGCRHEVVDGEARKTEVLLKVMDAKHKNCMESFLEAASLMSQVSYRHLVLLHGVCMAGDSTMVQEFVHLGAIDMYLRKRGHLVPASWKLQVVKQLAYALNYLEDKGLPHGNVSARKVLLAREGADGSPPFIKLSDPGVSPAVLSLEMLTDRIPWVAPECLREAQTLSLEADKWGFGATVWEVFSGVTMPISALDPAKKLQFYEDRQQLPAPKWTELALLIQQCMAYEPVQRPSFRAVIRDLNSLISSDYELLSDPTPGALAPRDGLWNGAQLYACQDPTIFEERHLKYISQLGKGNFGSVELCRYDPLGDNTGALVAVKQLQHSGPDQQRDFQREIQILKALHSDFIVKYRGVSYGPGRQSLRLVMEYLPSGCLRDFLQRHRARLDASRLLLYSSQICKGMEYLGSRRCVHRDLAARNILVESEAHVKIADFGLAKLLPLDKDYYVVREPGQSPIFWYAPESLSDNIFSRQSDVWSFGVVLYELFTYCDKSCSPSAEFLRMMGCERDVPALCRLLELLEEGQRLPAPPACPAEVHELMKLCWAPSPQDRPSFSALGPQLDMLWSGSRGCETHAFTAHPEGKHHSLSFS

TRKA [2] = biological target: T1, TRKA; settings: reported; cited from earlier work
adipocytes = test: Lipolysis in vitro in adipocytes; assay type: cell-based, C57BL/6 mouse
Procedure: Newly extracted neonatal C57BL/6 mouse skin fibroblasts (specific operational steps can be found in the literature: Cell Reports (2023)/doi: 10.1016/j.celrep.2023.112647) were plated and cultured in petri dishes until the cell density reached the highest and contact inhibition. Differentiation medium (DMEM+10% FBS+1× antibiotic; specific formula can be found in the literature: Cell Reports (2023)/doi: 10.1016/j.celrep.2023.112647) was then added to induce the generation of new adipocytes. […] The control group received an equal volume of DMSO. The transformation of adipocytes was observed using a Leica inverted phase contrast microscope.

[3] = system: atopic dermatitis/eczema in mice; test: Atopic dermatitis/eczema model in mice (dust mite extract + SEB); assay type: in vivo; settings: for Number of Scratch Incidents (±SE) / Scratch Duration (±SE) / Skin Erythema, Hemorrhage, Eruption, and Desquamation (Lesion Scoring) (Mean ± SE): Tofacitinib 10 mg/kg
[4] = system: allergic rhinitis model in mice; test: Allergic rhinitis model in mice (OVA); assay type: in vivo, BALB/C mice; settings: for Rhinitis behavioral scoring: 7-day treatment, MDI-1233 10 mg/kg, MDI-1228 3 mg/kg, fluticasone propionate positive control
Procedure: 42-49 day-old BALB/C mice (Manufacturer: Liaoning Changsheng Biotechnology Co., Ltd., License Number: SCXK(therapeutic)2015-0001), both male and female, were reared under conventional diet, at a temperature of 20 to 26° C., and a humidity of 40% to 70%. Animal grouping and modeling: • 1. Blank control group (no treatment) • 2. Allergic rhinitis group (vehicle treatment: saline containing 0.2% Tween 80) • 3. Allergic rhinitis+compound MDI-1233: 1 mg/kg • 4. Allergic rhinitis+compound MDI-1233: 3 mg/kg • 5. Allergic rhinitis+compound MDI-1233: 10 mg/kg • 6. Allergic rhinitis+compound MDI-1228: 3 mg/kg • 7. Allergic rhinitis+compound MDI-1288: 3 mg/kg • 8. Allergic rhinitis+positive control group (Fluticasone propionate, GlaxoSmithKline, E88D
The preparation of an AR model in mice involved sensitizing and challenging BALB/c mice with ovalbumin (OVA) to simulate an acute symptoms caused by natural exposure to an allergen. The experimental animals were weighed and separated by gender. Sensitization was performed on days 1, 5, 9, and 12. From day 13, a daily challenge was carried out for 7 consecutive days. After the last challenge, behavior of the mice was observed and scored. The sensitization method involved intraperitoneal injection of an OVA (Sigma, A5503-1G) suspension in 50 μg/ml in which the OVA suspension was prepared by dissolving 500 μg of ovalbumin and 50 mg of AL(OH)3 (CAS 21645-51-2) into 10 ml of normal saline, pH 7.4, with 200 μl injected per mouse. […] On day 12, a single nasal challenge with 10% OVA was performed (PBS was used for the control group). Scoring was conducted according to the table below, using a superposition method to calculate the total score. A total score greater than 5 was considered as successful. Subsequent experiments were conducted after the modeling was deemed successful.
From day 13, compound administration and challenge were conducted. The compound administration method involved calculating the nasal drops volume according to the mouse's body weight and group requirements, and dissolving the compounds MDI-1233, MDI-1228, MDI-1288 into normal saline containing 0.2% Tween 80 at specific concentrations. The administration was given 30 minutes before the challenge, twice a day. The positive control treatment involved administering nasal drop once (10 μl per side) 30 minutes before OVA nasal stimulation, twice a day. Thirty minutes after the second drug administration, a 10% OVA challenge was conducted, and the amount of nasal discharge, sneezing, and nose scratching were observed and recorded within 30 minutes after each challenge and then scored. The control group was treated with normal saline nasal drops.
After the rhinitis modeling was completed and the scores were stable, mice of each group were anesthetized and sacrificed after a 20-day scoring. Samples were collected, and peripheral serum was obtained by collecting whole blood, and standing it at room temperature for 1 hour and then centrifuging it to collect the supernatant for ELISA detection; nasal mucosa was taken for HE staining (fixed with 10% formalin); and the supernatant of nasal lavage fluid was taken for ELISA detection.
(1) HE Staining: The tissue was rinsed with running water for several hours, dehydrated through a series of ethanol solutions (70%, 80%, 90%), and then treated with a mixture of pure alcohol and xylene for 15 minutes, followed by xylene I for 15 minutes and xylene I1 for 15 minutes (until transparent). The tissue was then placed in a mixture of xylene and paraffin at a volume ratio of 1:1 for 15 minutes, followed by immersion with paraffin I and paraffin II each for 50-60 minutes. The tissue was embedded in paraffin and sectioned, and the sections were spreaded, dried, dewaxed and hydrated in distilled water. […]

[5] = system: ovalbumin-induced asthma model in mice; test: Ovalbumin-induced asthma model in mice; assay type: in vivo, Balb/c mice; settings: nasal administration BID 5 days: MDI-1228 3 mg/kg, MDI-1288 3 mg/kg, MDI-1233 1, 3, 10 mg/kg
Procedure: After 7 days of acclimatization, animals were randomly grouped based on their body weight. The experiment was divided into 8 groups, with 8 mice in each group, as detailed in the table below.
• Preparation of Immunogen: Weigh an appropriate amount of OVA, to which an appropriate amount of PBS was added, to achieve a final concentration of 0.1 mg/ml. Then, an equal volume of aluminum adjuvant was added, and the resulting mixture was mixed well, and stored at 4° C., which was prepared before use. • Preparation of Sensitizer (5% OVA): Weigh an appropriate amount of OVA, to which an appropriate amount of PBS was added, to achieve a final concentration of 5%. The resulting mixture was mixed well, and store it at 4° C. for later use, which was prepared before use. • Preparation of Vehicle: Add 200 μl of Tween 80 to 100 ml of saline, and mix it well. […] Mix it well, and store it at 4° C. for later use. […] Mix it well, and store it at 4° C. for later use. […] Mix it well, and store it at 4° C. for later use. The solution was prepared once every three days.
• Immunization: On days 0, 7, 14, and 21, 200 μl of PBS was injected intraperitoneally for the first group, and 200 μl of (10 μg) OVA/aluminum adjuvant emulsion was injected intraperitoneally for groups 2-8. • Sensitization: From days 28 to 32, the first group of animals was exposed to nebulized PBS in a nebulization box for 20 minutes, and the groups 2-8 were exposed to nebulized 5% OVA in a nebulization box for 20 minutes. And then, they were removed. The sensitization was conducted at 12:30 PM daily. • Administration: The medicine was administrated twice a day at 9 AM and 5 PM via nasal drops. Dexamethasone (Dex) was administered by gavage once a day at 9 AM.
Serum IgE: Blood was collected from the orbits of animals after carbon dioxide euthanasia, and plasma was separated and stored at −40 degrees for plasma IgE detection.
Bronchoalveolar Lavage Fluid (BALF) Cell Count: An appropriate amount of foetal bovine serum was weighted and dissolved in PBS to a final concentration of 1%. After orbital blood collection, the trachea was exposed, and a 1 ml syringe needle was replaced with a mouse gavage needle. 0.8 ml of the lavage fluid was aspirated from the syringe and the lungs were lavaged three times. The lavage fluids were collected, and centrifuged at 1000 rpm for 10 minutes, and the supernatant was collected and stored at −40 degrees Celsius. Cells were resuspended with 1 ml of PBS and counted. 100 ul of centrifuged smear was taken and stained with Diff quick and the number of eosinophils, basophils, lymphocytes and macrophages were recorded.
Bronchoalveolar Lavage Fluid IL-5: Bronchoalveolar lavage fluid was collected to detect IL-5.
Pathological scoring criteria were: • A) 0 points: No lymphocyte infiltration; • B) 1 point: Trace lymphocyte infiltration; • C) 2 points: Mild lymphocyte infiltration; • D) 3 points: Moderate lymphocyte infiltration; • E) 4 points: Severe lymphocyte infiltration; • After scoring, the results were calculated and analyzed.

[6] = nasal drops twice a day, MDI-1288 3 mg/kg
[7] = vs. vehicle (model) group, dexamethasone 1 mg/kg gavage QD

Chain of TRKB (Q16620 32-822): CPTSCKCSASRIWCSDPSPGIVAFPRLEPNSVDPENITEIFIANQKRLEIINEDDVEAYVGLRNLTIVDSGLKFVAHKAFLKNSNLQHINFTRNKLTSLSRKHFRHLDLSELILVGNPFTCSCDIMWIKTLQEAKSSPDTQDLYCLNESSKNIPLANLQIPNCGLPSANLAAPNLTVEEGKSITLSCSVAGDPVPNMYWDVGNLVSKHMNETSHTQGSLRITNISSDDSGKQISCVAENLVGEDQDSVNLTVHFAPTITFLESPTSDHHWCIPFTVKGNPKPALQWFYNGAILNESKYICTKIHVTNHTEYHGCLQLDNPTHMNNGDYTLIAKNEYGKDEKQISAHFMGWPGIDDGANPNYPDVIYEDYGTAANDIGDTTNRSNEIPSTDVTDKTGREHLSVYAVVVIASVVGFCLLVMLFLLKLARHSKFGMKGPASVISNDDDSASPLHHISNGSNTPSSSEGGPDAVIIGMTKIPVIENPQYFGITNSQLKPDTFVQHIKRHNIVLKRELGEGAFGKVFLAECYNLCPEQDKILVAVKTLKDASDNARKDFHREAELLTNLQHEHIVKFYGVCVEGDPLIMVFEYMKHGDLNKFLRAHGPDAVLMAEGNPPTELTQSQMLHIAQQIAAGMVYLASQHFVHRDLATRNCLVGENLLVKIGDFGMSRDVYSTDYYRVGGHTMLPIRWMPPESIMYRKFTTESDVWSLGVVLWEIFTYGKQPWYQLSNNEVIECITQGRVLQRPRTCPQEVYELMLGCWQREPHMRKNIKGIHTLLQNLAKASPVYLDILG

IC50 (TRKB): 1.39 nM | IC50 (TRKA [1]): 0.57 nM | IC50 (RET): 0.1 nM | IC50 (TRKC): 0.27 nM
Molecule: CCc1cc(O)c(F)cc1-c1ccc2c(-c3nc4c([nH]3)CN(C(=O)N3CCN(C)CC3)C4)n[nH]c2c1 [MDI-235, (2-(6-(2-ethyl-5-fluoro-4-hydroxyphenyl)-1H-indazol-3-yl)-4,6-dihydropyrrolo[3,4-d]imidazol-5-(1H)-yl)(4-methylpiperazin-1-yl)ketone]

Molecule: Pegcantratinib
Inhibition of JAK3 (JAK3): capable of inhibiting | Inhibition of TRKA (TRKA [2]): capable of inhibiting

Molecule: C[C@@H]1CCN(C(=O)CC#N)C[C@@H]1N(C)c1ncnc2[nH]ccc12 [Tofacitinib, reference compound]
Lipolysis of differentiated mature adipocytes (phase contrast images) (adipocytes; 5 μM): does not promote lipolysis | Adipocyte lipolysis in vitro (adipocytes; summary statement): no similar effect | Number of Scratch Incidents (±SE) ([3]; Day 1): 17.75 ± 0.86 | Scratch Duration (±SE) ([3]; Day 1): 278.25 ± 50.09 | Skin Erythema, Hemorrhage, Eruption, and Desquamation (Lesion Scoring) (Mean ± SE) ([3]; Day 1): 4.38 ± 0.46 | Skin Erythema, Hemorrhage, Eruption, and Desquamation (Lesion Scoring) (Mean ± SE) ([3]; Day 4): 2.63 ± 0.26 | Skin Erythema, Hemorrhage, Eruption, and Desquamation (Lesion Scoring) (Mean ± SE) ([3]; Day 7): 2.00 ± 0.33 | Number of Scratch Incidents (±SE) ([3]; Day 14): 26.7 ± 1.96 | Scratch Duration (±SE) ([3]; Day 14): 217.5 ± 47.85 | Skin Erythema, Hemorrhage, Eruption, and Desquamation (Lesion Scoring) (Mean ± SE) ([3]; Day 14): 1.50 ± 0.19 | Behavioral analysis (scratch incidents and scratch duration) ([3]; MDI-1228 high-dose (3% gel), tofacitinib 10 mg/kg): did not show significant effects in the behavioral analysis

Molecule: CCc1cc(O)c(F)cc1-c1ccc2c(-c3nc4c([nH]3)CN(C(=O)C3CC3)C4)n[nH]c2c1 [MDI-1233, cyclopropyl (2-(6-(2-ethyl-5-fluoro-4-hydroxyphenyl)-1H-indazol-3-yl)pyrrolo[3,4-d]imidazol-5(1H,4H,6H)-yl)ketone]
IC50 (TRKB; read-out: TRKB IC50, ATP 5 μM): 4.16 nM | IC50 (TRKA [1]; read-out: TRKA IC50, ATP 5 μM): 12.2 nM | IC50 (RET): 4.21 nM | Nasal mucosa pathology (HE staining) ([4]; MDI-1233 1 mg/kg and 3 mg/kg nasal drops twice a day): still accompanied by bleeding, inflammatory cell infiltration, cilia shedding | Nasal mucosa pathology (HE staining) ([4]; MDI-1233 10 mg/kg nasal drops twice a day): the nasal mucosal cilia repair effect was significant | Rhinitis behavioral scoring [4, 6]: demonstrated inhibitory effects on the male mouse rhinitis model | Therapeutic effect on the asthma animal model (lung tissue pathological scoring) [5]: good therapeutic effect | Bronchoalveolar lavage fluid IL-5 expression level [5, 7]: could reduce IL-5 expression in all three dosage | Inflammatory cell count in bronchoalveolar lavage fluid [5, 7]: could reduce the Inflammatory Cell Count in all three dosage | Lung tissue inflammatory cell infiltration (HE pathology) [5, 7]: could reduce the lung tissue inflammatory cell infiltration in all three dosage | Serum IgE expression level [5, 7]: could reduce IgE expression in all three dosage | IC50 (TRKC; read-out: TRKC IC50, ATP 5 μM): 5.91 nM

IC50 (TRKB): 3.37 nM | IC50 (TRKA [1]): 0.83 nM | IC50 (RET): 0.99 nM | IC50 (TRKC): 0.57 nM
Molecule: CCc1cc(O)c(F)cc1-c1ccc2c(-c3nc4c([nH]3)CN(C(=O)N3CCC(O)CC3)C4)n[nH]c2c1 [MDI-245, (2-(6-(2-ethyl-5-fluoro-4-hydroxyphenyl)-1H-indazol-3-yl)-4,6-dihydropyrrolo[3,4-d]imidazol-5(1H)-yl)(4-hydroxylpiperidin-1-yl)ketone]

IC50 (TRKB; read-out: TRKB IC50, ATP 5 μM): 34.2 nM | IC50 (TRKA [1]; read-out: TRKA IC50, ATP 5 μM): 10.3 nM | IC50 (RET): 8.36 nM | IC50 (TRKC; read-out: TRKC IC50, ATP 5 μM): 3.73 nM
Molecule: CCNC(=O)N1Cc2nc(-c3n[nH]c4cc(-c5cc(F)c(O)cc5CC)ccc34)[nH]c2C1 [MDI-247, 2-(6-(2-ethyl-5-fluoro-4-hydroxyphenyl)-1H-indazol-3-yl)-N-ethyl-4,6-dihydropyrrolo[3,4-d]imidazol-5-(1H)-carboxamide]

Molecule: CCC(=O)O[C@]1(C(=O)SCF)[C@H](C)C[C@H]2[C@@H]3C[C@H](F)C4=CC(=O)C=C[C@]4(C)[C@@]3(F)[C@@H](O)C[C@@]21C [fluticasone propionate, reference compound]
Nasal mucosa pathology (HE staining) ([4]; MDI-1288 3 mg/kg, fluticasone propionate 10 μl per side, nasal drops twice a day): inhibited the progression of rhinitis and promoted repair of cilia on the nasal mucosa | Rhinitis behavioral scoring [4, 6]: significant effects on inhibiting the rhinitis behavior
